Laboratory results as given in ChEMBL document CHEMBL5214978, “Identification of 1,4-Benzodiazepine-2,5-dione Derivatives as Potential Protein Synthesis Inhibitors with Highly Potent Anticancer Activity” (J Med Chem, 2022).

Experiments:
Type in all cases: functional
SF-295 = assay: Anticancer activity against human SF-295 cells assessed as cell growth inhibition measured after 48 hrs by SRB assay
A549 = assay: Anticancer activity against human A549 cells assessed as cell growth inhibition measured after 48 hrs by SRB assay
HCT-116 = assay: Anticancer activity against human HCT-116 cells assessed as cell growth inhibition measured after 48 hrs by SRB assay
[1] = test system: Panel NCI-60 (60 carcinoma cell lines); assay: Anticancer activity against human Panel NCI-60 (60 carcinoma cell lines) line assessed as cell growth inhibition measured after 48 hrs by SRB assay
786-0 = assay: Anticancer activity against human 786-0 cells assessed as cell growth inhibition measured after 48 hrs by SRB assay
LOX IMVI = assay: Anticancer activity against human LOX IMVI cells assessed as cell growth inhibition measured after 48 hrs by SRB assay

| SMILES | GI50 (A549) | GI50 (HCT-116) | GI50 (786-0) | GI50 (SF-295) | GI50 [1] | GI50 (LOX IMVI) |
| --- | --- | --- | --- | --- | --- | --- |
| COC(=O)C[C@@H]1NC(=O)c2cc(Oc3cc(C)cc(C)c3)c(NC(=O)c3ccc(F)cc3)cc2NC1=O | > 50000 nM | > 50000 nM | > 50000 nM | > 50000 nM | > 50000 nM | > 50000 nM |
| COC(=O)C[C@@H]1NC(=O)c2cc(OCCN3CCOCC3)c(NC(=O)c3cc(OC)c(OC)c(OC)c3)cc2NC1=O | > 50000 nM | > 50000 nM | > 50000 nM | > 50000 nM | > 50000 nM | > 50000 nM |
| COC(=O)C[C@@H]1NC(=O)c2cc(Oc3cc(C)cc(C)c3)c(NC(=O)c3cc(OC)cc(OC)c3)cc2NC1=O | 150 nM | 200 nM | 150 nM | 80 nM | 240 nM | 240 nM |
| COC(=O)C[C@@H]1NC(=O)c2cc(Oc3ccc4c(c3)CCC4)c(NC(=O)c3cc(OC)c(OC)c(OC)c3)cc2NC1=O | 1400 nM | 1710 nM | 2130 nM | 990 nM | 1860 nM | 1930 nM |
| COC(=O)C[C@@H]1NC(=O)c2cc(Oc3cc(C)cc(C)c3)c(NC(=O)c3ccco3)cc2NC1=O | > 50000 nM | > 50000 nM | > 50000 nM | > 50000 nM | > 50000 nM | > 50000 nM |
| COC(=O)C[C@@H]1NC(=O)c2cc(OC)c(NC(=O)c3cc(OC)c(OC)c(OC)c3)cc2NC1=O | > 50000 nM | > 50000 nM | > 50000 nM | > 50000 nM | > 50000 nM | > 50000 nM |
| COC(=O)C[C@@H]1NC(=O)c2cc(Oc3cc(C)ccc3C)c(NC(=O)c3cc(OC)c(OC)c(OC)c3)cc2NC1=O | 1170 nM | 1340 nM | 1280 nM | 960 nM | 1350 nM | 1360 nM |
| COc1cc(C(=O)Nc2cc3c(cc2Oc2cc(C)cc(C)c2)C(=O)N[C@@H](CC(=O)N2CCN(C)CC2)C(=O)N3)cc(OC)c1OC | 180 nM | 140 nM | 1570 nM | 670 nM | 1580 nM | 90 nM |
| COC(=O)C[C@@H]1NC(=O)c2cc(OCCCc3cc(C)cc(C)c3)c(NC(=O)c3cc(OC)c(OC)c(OC)c3)cc2NC1=O | > 50000 nM | > 50000 nM | > 50000 nM | > 50000 nM | > 50000 nM | > 50000 nM |
| COC(=O)C[C@@H]1NC(=O)c2cc(OCc3ccccc3)c(NC(=O)c3cc(OC)c(OC)c(OC)c3)cc2NC1=O | > 50000 nM | > 50000 nM | > 50000 nM | > 50000 nM | > 50000 nM | > 50000 nM |
| COc1cc(C(=O)Nc2cc3c(cc2Oc2cc(C)cc(C)c2)C(=O)N[C@@H](Cc2nnc(C)o2)C(=O)N3)cc(OC)c1OC | 1380 nM | 1260 nM | 1420 nM | 940 nM | 1580 nM | 1280 nM |
| CCN(CC)C(=O)C[C@H]1C(=O)Nc2cc(NC(=O)c3cc(OC)c(OC)c(OC)c3Cl)c(Oc3cc(C)cc(C)c3)cc2C(=O)N1C | 9 nM | 13 nM | 10 nM | 12 nM | 17 nM | < 5 nM |
| COc1cc(C(=O)Nc2cc3c(cc2Oc2cc(C)cc(C)c2)C(=O)N[C@@H](Cc2ncnn2C)C(=O)N3)cc(OC)c1OC | 470 nM | 90 nM | 36000 nM | 180 nM | 160 nM | 70 nM |
| COC(=O)C[C@@H]1NC(=O)c2cc(Oc3cc(C)cc(C)c3)c(NC(=O)c3ccc(OC)c(OC)c3OC)cc2NC1=O | > 50000 nM | > 50000 nM | > 50000 nM | > 50000 nM | > 50000 nM | > 50000 nM |
| COC(=O)C[C@@H]1NC(=O)c2cc(Oc3cc(Cl)cc(Cl)c3)c(NC(=O)c3cc(OC)c(OC)c(OC)c3)cc2NC1=O | > 50000 nM | > 50000 nM | > 50000 nM | > 50000 nM | > 50000 nM | > 50000 nM |

Second part, led by results:

| GI50 (A549) | GI50 (HCT-116) | GI50 (786-0) | SMILES | GI50 (SF-295) | GI50 [1] | GI50 (LOX IMVI) |
| --- | --- | --- | --- | --- | --- | --- |
| 1260 nM | 2080 nM | 1860 nM | COC(=O)CC[C@@H]1NC(=O)c2cc(Oc3cc(C)cc(C)c3)c(NC(=O)c3cc(OC)c(OC)c(OC)c3)cc2NC1=O | 1100 nM | 1200 nM | 1920 nM |
| 243 nM | 172 nM | 1000 nM | CCN(CC)C(=O)C[C@@H]1NC(=O)c2cc(Oc3cc(C)c(Br)c(C)c3)c(NC(=O)c3cc(OC)c(OC)c(OC)c3)cc2NC1=O |  | 234 nM | 128 nM |
| 17 nM | 21 nM | 41 nM | CCN(CC)C(=O)C[C@H]1C(=O)Nc2cc(NC(=O)c3cc(OC)c(OC)c(OC)c3)c(Oc3cc(C)cc(C)c3)cc2C(=O)N1C | 10 nM | 23 nM | 18 nM |
| 20 nM | 20 nM | 90 nM | CCN(CC)C(=O)C[C@@H]1NC(=O)c2cc(Oc3cc(C)cc(C)c3)c(NC(=O)c3cc(OC)c(OC)c(OC)c3)cc2NC1=O | 20 nM | 30 nM | 20 nM |
| 148 nM | 145 nM | 158 nM | CCN(CC)C(=O)C[C@H]1C(=O)Nc2cc(NC(=O)c3cc(OC)c(OC)c(OC)c3)c(Oc3cc(C)cc(C)c3)cc2C(=O)N1CC | 118 nM | 69 nM | 134 nM |
| 1520 nM | 2010 nM | 2400 nM | COC(=O)C[C@@H]1NC(=O)c2cc(Oc3ccc(C)c(C)c3)c(NC(=O)c3cc(OC)c(OC)c(OC)c3)cc2NC1=O | 1010 nM | 1910 nM | 2550 nM |
| 15 nM | 17 nM | 61 nM | CCN(CC)C(=O)C[C@@H]1NC(=O)c2cc(Oc3cc(C)cc(C)c3)c(NC(=O)c3c(F)c(OC)c(OC)c(OC)c3Cl)cc2NC1=O | 40 nM | 23 nM | 7 nM |
| > 50000 nM | > 50000 nM | > 50000 nM | COc1cc(C(=O)Nc2cc3c(cc2Oc2cc(C)cc(C)c2)C(=O)N[C@@H](CC(=O)O)C(=O)N3)cc(OC)c1OC | > 50000 nM | > 50000 nM | > 50000 nM |
| > 50000 nM | > 50000 nM | > 50000 nM | CCN(CC)C(=O)C[C@@H]1NC(=O)c2cc(Oc3cc(C)cc(C)c3)c(NC(=O)c3cc(OC)c(OC)c(OC)c3)cc2N(C)C1=O | > 50000 nM | > 50000 nM | > 50000 nM |
| 1860 nM | 510 nM | 1910 nM | CCCCOC(=O)C[C@@H]1NC(=O)c2cc(Oc3cc(C)cc(C)c3)c(NC(=O)c3cc(OC)c(OC)c(OC)c3)cc2NC1=O | 1910 nM |  | 3980 nM |
| 17 nM | < 13 nM | 40 nM | CCN(CC)C(=O)C[C@@H]1NC(=O)c2cc(Oc3cc(C)cc(C)c3)c(NC(=O)c3cc(OC)c(OC)c(OC)c3Cl)cc2NC1=O | 23 nM |  | < 5 nM |
| 140 nM | 30 nM |  | COc1cc(C(=O)Nc2cc3c(cc2Oc2cc(C)cc(C)c2)C(=O)N[C@@H](CC(=O)N(C)C)C(=O)N3)cc(OC)c1OC | 110 nM | 60 nM | 20 nM |
| 360 nM | 460 nM | 360 nM | CCCCN(CCCC)C(=O)C[C@@H]1NC(=O)c2cc(Oc3cc(C)cc(C)c3)c(NC(=O)c3cc(OC)c(OC)c(OC)c3)cc2NC1=O | 320 nM |  | 340 nM |
